In patent US20120083522A1, “MODULATION OF INFLAMMATORY RESPONSES BY FACTOR XI” (Isis Pharmaceuitcals, inc., priority 2009, published 2012):
In the oligonucleotide strings, read from the 5' end, every base follows the letter of its sugar. An asterisk marks phosphorothioate; unmarked linkages are phosphodiester. Other units and linkages are bracketed, terminal groups are in braces. A string of capitals states the bases alone. e = 2'-O-(2-methoxyethyl) (MOE); [5mC] = 5-methylcytosine; d = 2'-deoxy (DNA)

System: human Factor XI mRNA
Assay: Antisense inhibition in HepG2 cells by microwalk gapmers, 75 nM, lipofectin (Example 3)
Type: cell-based
Details: HepG2 cells, 75 nM
Description: These gapmers were designed by creating gapmers shifted slightly upstream and downstream (i.e. “microwalk”) of the original gapmers from Table 3. Gapmers were also created with various motifs, e.g. 5-10-5 MOE, 3-14-3 MOE, and 2-13-5 MOE. These gapmers were tested in vitro. Cultured HepG2 cells at a density of 10,000 cells per well were transfected using lipofectin reagent with 75 nM antisense oligonucleotide. After a treatment period of approximately 24 hours, RNA was isolated from the cells and Factor XI mRNA levels were measured by quantitative real-time PCR. Factor XI mRNA levels were adjusted according to total RNA content, as measured by RIBOGREEN®. Results are presented as percent inhibition of Factor XI, relative to untreated control cells.
The chimeric antisense oligonucleotides in Table 4 were designed as 5-10-5 MOE, 3-14-3 MOE, and 2-13-5 MOE gapmers. The first listed gapmers in Table 4 are the original gapmers (see Table 3) from which the remaining gapmers were designed via microwalk and are designated by an asterisk. The 5-10-5 gapmers are 20 nucleotides in length, wherein the central gap segment is comprised of 10 2′-deoxynucleotides and is flanked on both sides (in the 5′ and 3′ directions) by wings comprising 5 nucleotides each. The 3-14-3 gapmers are 20 nucleotides in length, wherein the central gap segment is comprised of 14 2′-deoxynucleotides and is flanked on both sides (in the 5′ and 3′ directions) by wings comprising 3 nucleotides each. The 2-13-5 gapmers are 20 nucleotides in length, wherein the central gap segment is comprised of 13 2′-deoxynucleotides. The central gap is flanked on the 5′ end with a wing comprising 2 nucleotides and on the 3′ end with a wing comprising 5 nucleotides. For each of the motifs (5-10-5, 3-14-3, and 2-13-5), each nucleotide in the 5′ wing segment and each nucleotide in the 3′ wing segment has a 2′-MOE modification. The internucleoside linkages throughout each gapmer are phosphorothioate (P═S) linkages. All cytidine residues throughout each gapmer are 5-methylcytidines. “Target start site” indicates the 5′-most nucleotide to which the gapmer is targeted. “Target stop site” indicates the 3′-most nucleotide to which the gapmer is targeted. Each gapmer listed in Table 4 is targeted to SEQ ID NO: 1 (GENBANK Accession No. NM_000128.3).

[1] = oligonucleotides targeted to nucleobases 1275 to 1318 of SEQ ID NO: 1
[2] = oligonucleotides targeted to nucleobases 738 to 762 of SEQ ID NO: 1
[3] = oligonucleotides targeted to nucleobases 1018 to 1042 of SEQ ID NO: 1

| Substance | % inhibition of human Factor XI mRNA levels [1] [%] | % inhibition of human Factor XI mRNA levels [2] [%] | also measured |
| --- | --- | --- | --- |
| 416934 (antisense eG*eA*e[5mC]*dG*dG*d[5mC]*dA*dT*dT*dG*dG*dT*dG*d[5mC]*dA*d[5mC]*dA*eG*eT*eT) [compound 416934] | 90 | – | – |
| 416935 (antisense eG*eG*eA*d[5mC]*dG*dG*d[5mC]*dA*dT*dT*dG*dG*dT*dG*d[5mC]*dA*d[5mC]*eA*eG*eT) [compound 416935] | 92 | – | – |
| 416936 (antisense e[5mC]*eG*eG*dA*d[5mC]*dG*dG*d[5mC]*dA*dT*dT*dG*dG*dT*dG*d[5mC]*dA*e[5mC]*eA*eG) [compound 416936] | 89 | – | – |
| 416937 (antisense eG*e[5mC]*eG*dG*dA*d[5mC]*dG*dG*d[5mC]*dA*dT*dT*dG*dG*dT*dG*d[5mC]*eA*e[5mC]*eA) [compound 416937] | 93 | – | – |
| 416938 (antisense eA*eG*e[5mC]*dG*dG*dA*d[5mC]*dG*dG*d[5mC]*dA*dT*dT*dG*dG*dT*dG*e[5mC]*eA*e[5mC]) [compound 416938] | 90 | – | – |
| 416939 (antisense e[5mC]*eA*eG*d[5mC]*dG*dG*dA*d[5mC]*dG*dG*d[5mC]*dA*dT*dT*dG*dG*dT*eG*e[5mC]*eA) [compound 416939] | 88 | – | – |
| 416940 (antisense eG*e[5mC]*eA*dG*d[5mC]*dG*dG*dA*d[5mC]*dG*dG*d[5mC]*dA*dT*dT*dG*dG*eT*eG*e[5mC]) [compound 416940] | 92 | – | – |
| 416942 (antisense eT*eG*eG*d[5mC]*dA*dG*d[5mC]*dG*dG*dA*d[5mC]*dG*dG*d[5mC]*dA*dT*dT*eG*eG*eT) [compound 416942] | 85 | – | – |
| 416943 (antisense e[5mC]*eT*eG*dG*d[5mC]*dA*dG*d[5mC]*dG*dG*dA*d[5mC]*dG*dG*d[5mC]*dA*dT*eT*eG*eG) [compound 416943] | 92 | – | – |
| 416944 (antisense eA*e[5mC]*eT*dG*dG*d[5mC]*dA*dG*d[5mC]*dG*dG*dA*d[5mC]*dG*dG*d[5mC]*dA*eT*eT*eG) [compound 416944] | 83 | – | – |
| 416975 (antisense e[5mC]*e[5mC]*dG*dT*dG*d[5mC]*dA*dT*d[5mC]*dT*dT*dT*d[5mC]*dT*dT*eG*eG*e[5mC]*eA*eT) [compound 416975] | – | 87 | – |
| 416976 (antisense eT*e[5mC]*d[5mC]*dG*dT*dG*d[5mC]*dA*dT*d[5mC]*dT*dT*dT*d[5mC]*dT*eT*eG*eG*e[5mC]*eA) [compound 416976] | – | 83 | – |
| 416977 (antisense eA*eT*d[5mC]*d[5mC]*dG*dT*dG*d[5mC]*dA*dT*d[5mC]*dT*dT*dT*d[5mC]*eT*eT*eG*eG*e[5mC]) [compound 416977] | – | 82 | – |
| 416978 (antisense e[5mC]*eA*dT*d[5mC]*d[5mC]*dG*dT*dG*d[5mC]*dA*dT*d[5mC]*dT*dT*dT*e[5mC]*eT*eT*eG*eG) [compound 416978] | – | 76 | – |
| 416979 (antisense eT*e[5mC]*dA*dT*d[5mC]*d[5mC]*dG*dT*dG*d[5mC]*dA*dT*d[5mC]*dT*dT*eT*e[5mC]*eT*eT*eG) [compound 416979] | – | 63 | – |
| 416980 (antisense eG*eT*d[5mC]*dA*dT*d[5mC]*d[5mC]*dG*dT*dG*d[5mC]*dA*dT*d[5mC]*dT*eT*eT*e[5mC]*eT*eT) [compound 416980] | – | 87 | – |
| 416981 (antisense e[5mC]*e[5mC]*dG*dG*dG*dA*dT*dG*dA*dT*dG*dA*dG*dT*dG*e[5mC]*eA*eG*eA*eT) [compound 416981] | – | – | % inhibition of human Factor XI mRNA levels [3]: 87% |
| 416982 (antisense eA*e[5mC]*d[5mC]*dG*dG*dG*dA*dT*dG*dA*dT*dG*dA*dG*dT*eG*e[5mC]*eA*eG*eA) [compound 416982] | – | – | % inhibition of human Factor XI mRNA levels [3]: 84% |
| 416983 (antisense eA*eA*d[5mC]*d[5mC]*dG*dG*dG*dA*dT*dG*dA*dT*dG*dA*dG*eT*eG*e[5mC]*eA*eG) [compound 416983] | – | – | % inhibition of human Factor XI mRNA levels [3]: 86% |
